Reference: ChEMBL document CHEMBL1201862, “PubChem BioAssay data set” (2004)
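Dose response: 5 concentrations. Exposure: 48 h. Format: 96-well plates. Endpoint: linear interpolation; highest concentration if not reached. Abbreviation: GI50, concentration required for 50% inhibition of growth.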 The source made the active and inactive calls. Rule as the data show it: active = GI50 up to about 1.1 µM and inactive = higher.

Assays:
Experiment in all cases: DTP human tumour cell line panel, 48 h
NCI-H522 = test system: NCI-H522
ACHN = test system: ACHN
HL-60 = test system: HL-60
SN12C = test system: SN12C
MOLT-4 = test system: MOLT-4
EKVX = test system: EKVX
HCC 2998 = test system: HCC 2998
TK-10 = test system: TK-10
SK-MEL-5 = test system: SK-MEL-5
OVCAR-8 = test system: OVCAR-8
SK-OV-3 = test system: SK-OV-3
M14 = test system: M14
COLO 205 = test system: COLO 205
RPMI-8226 = test system: RPMI-8226
CAKI-1 = test system: CAKI-1
OVCAR-4 = test system: OVCAR-4
HOP-92 = test system: HOP-92

| SMILES | GI50 (NCI-H522) | GI50 (ACHN) | GI50 (HL-60) | GI50 (SN12C) | GI50 (MOLT-4) | GI50 (EKVX) | GI50 (HCC 2998) | GI50 (TK-10) | GI50 (SK-MEL-5) | GI50 (OVCAR-8) | GI50 (SK-OV-3) | GI50 (M14) | GI50 (COLO 205) | GI50 (RPMI-8226) | GI50 (CAKI-1) | GI50 (OVCAR-4) | GI50 (HOP-92) |
| --- | --- | --- | --- | --- | --- | --- | --- | --- | --- | --- | --- | --- | --- | --- | --- | --- | --- |
| CC(C)(C)C1CCN(C(=O)c2ccccc2)CC1 | 62.7 µM (inactive) | > 100 µM (inactive) | 32.9 µM (inactive) | > 100 µM (inactive) | 47.3 µM (inactive) | > 100 µM (inactive) | > 100 µM (inactive) | > 100 µM (inactive) | 28.8 µM (inactive) | > 100 µM (inactive) | > 100 µM (inactive) | > 100 µM (inactive) | > 100 µM (inactive) | 46 µM (inactive) | – | – | – |
| CCCCCCCCC1C(C)c2c([nH]c3ccccc23)C2C(=O)N(c3ccccc3)C(=O)C21 (configuration not stated) | – | 11.5 µM (inactive) | 3.27 µM (inactive) | 11.4 µM (inactive) | 2.27 µM (inactive) | 21.1 µM (inactive) | 12.5 µM (inactive) | 20.1 µM (inactive) | 16.3 µM (inactive) | 11.1 µM (inactive) | 28.7 µM (inactive) | 14 µM (inactive) | – | 3.4 µM (inactive) | 14 µM (inactive) | 4.3 µM (inactive) | – |
| O=c1/c(=C/c2cccc([N+](=O)[O-])c2)sc2nc3ccccc3n12 | – | 84.7 µM (inactive) | > 100 µM (inactive) | > 100 µM (inactive) | – | 58.7 µM (inactive) | 50.8 µM (inactive) | > 100 µM (inactive) | > 10 µM (inactive) | > 100 µM (inactive) | 67.8 µM (inactive) | 55.1 µM (inactive) | – | – | > 10 µM (inactive) | 52.4 µM (inactive) | > 10 µM (inactive) |
| C/C=C/C=C\C(=O)C1c2cccc(O)c2C(=O)c2c(O)cc(C)cc21 (configuration not stated) | 1.66 µM (inactive) | 1.35 µM (inactive) | 0.294 µM (active) | 2.33 µM (inactive) | 2.92 µM (inactive) | 3.38 µM (inactive) | 0.306 µM (active) | 1.7 µM (inactive) | 1.39 µM (inactive) | 1.81 µM (inactive) | 1.43 µM (inactive) | – | 1.64 µM (inactive) | 2.14 µM (inactive) | 2.08 µM (inactive) | 1.7 µM (inactive) | 1.39 µM (inactive) |
| O=c1[nH]c2cc([N+](=O)[O-])ccc2nc1/C(=N\NO)C(O)c1ccc([N+](=O)[O-])cc1 (configuration not stated) | 44.7 µM (inactive) | 52.5 µM (inactive) | 79.4 µM (inactive) | 98.9 µM (inactive) | > 100 µM (inactive) | – | > 100 µM (inactive) | – | > 100 µM (inactive) | > 100 µM (inactive) | > 100 µM (inactive) | > 100 µM (inactive) | > 100 µM (inactive) | > 100 µM (inactive) | 50.2 µM (inactive) | > 100 µM (inactive) | > 100 µM (inactive) |
| C/C(=N\NS(=O)(=O)c1c(C)cc(C)cc1C)c1ccc[n+]([O-])n1 | 6.61 µM (inactive) | 14.2 µM (inactive) | 6.12 µM (inactive) | 14.9 µM (inactive) | 14.5 µM (inactive) | 12.4 µM (inactive) | 33 µM (inactive) | – | 41.9 µM (inactive) | 19.6 µM (inactive) | > 100 µM (inactive) | 7.64 µM (inactive) | – | 11.7 µM (inactive) | 4.78 µM (inactive) | 12.8 µM (inactive) | 9.95 µM (inactive) |
| COc1ccc2oc(C(=O)O)c3c2c1CCC3 | – | > 100 µM (inactive) | > 100 µM (inactive) | > 100 µM (inactive) | > 100 µM (inactive) | > 100 µM (inactive) | > 100 µM (inactive) | > 100 µM (inactive) | > 100 µM (inactive) | > 100 µM (inactive) | > 100 µM (inactive) | > 100 µM (inactive) | > 100 µM (inactive) | > 100 µM (inactive) | > 100 µM (inactive) | > 100 µM (inactive) | 42.5 µM (inactive) |
| O=C(O)CCC1c2[nH]c3ccccc3c2CCN1Cc1ccccc1 (configuration not stated) | > 100 µM (inactive) | > 100 µM (inactive) | > 100 µM (inactive) | > 100 µM (inactive) | > 100 µM (inactive) | > 100 µM (inactive) | > 100 µM (inactive) | > 100 µM (inactive) | > 100 µM (inactive) | > 100 µM (inactive) | > 100 µM (inactive) | > 100 µM (inactive) | > 100 µM (inactive) | – | > 100 µM (inactive) | > 100 µM (inactive) | > 100 µM (inactive) |
| COc1ccc(/N=N/c2c(-c3ccccc3)nn(C(=O)CC(=O)Nc3ccc(OC)cc3)c2-c2ccccc2)cc1 | 61.5 µM (inactive) | 97.3 µM (inactive) | > 100 µM (inactive) | > 100 µM (inactive) | 31.8 µM (inactive) | 71.1 µM (inactive) | > 100 µM (inactive) | 52.7 µM (inactive) | > 100 µM (inactive) | > 100 µM (inactive) | 40.6 µM (inactive) | – | > 100 µM (inactive) | > 100 µM (inactive) | > 100 µM (inactive) | > 100 µM (inactive) | 16 µM (inactive) |
| O=C(O)CCSC(=O)Nc1ccccc1F | > 100 µM (inactive) | > 100 µM (inactive) | > 100 µM (inactive) | > 100 µM (inactive) | > 100 µM (inactive) | > 100 µM (inactive) | > 100 µM (inactive) | > 100 µM (inactive) | – | – | – | > 100 µM (inactive) | > 100 µM (inactive) | > 100 µM (inactive) | > 100 µM (inactive) | > 100 µM (inactive) | – |
| O=C1NC(=O)C(=O)C(c2nc3ccccc3s2)C1=O | > 100 µM (inactive) | > 100 µM (inactive) | > 100 µM (inactive) | > 100 µM (inactive) | > 100 µM (inactive) | > 100 µM (inactive) | > 100 µM (inactive) | > 100 µM (inactive) | > 100 µM (inactive) | > 100 µM (inactive) | > 100 µM (inactive) | > 100 µM (inactive) | > 100 µM (inactive) | – | > 100 µM (inactive) | > 100 µM (inactive) | > 100 µM (inactive) |
| NC(=O)OCC(COc1ccc(Cl)cc1)OC(=O)c1ccccc1Cl (configuration not stated) | 16.9 µM (inactive) | 31.6 µM (inactive) | 21.9 µM (inactive) | 16.6 µM (inactive) | 21 µM (inactive) | 25.4 µM (inactive) | 23.8 µM (inactive) | 28.8 µM (inactive) | 19.1 µM (inactive) | 23.4 µM (inactive) | > 100 µM (inactive) | 18.7 µM (inactive) | 17.5 µM (inactive) | 21.8 µM (inactive) | 26.5 µM (inactive) | – | 17.1 µM (inactive) |
| COC(=O)CCC(NC(=S)N/N=C/c1cccs1)C(=O)OC (configuration not stated) | > 100 µM (inactive) | > 100 µM (inactive) | > 100 µM (inactive) | > 100 µM (inactive) | – | > 100 µM (inactive) | > 100 µM (inactive) | > 100 µM (inactive) | > 100 µM (inactive) | > 100 µM (inactive) | > 100 µM (inactive) | > 100 µM (inactive) | > 100 µM (inactive) | – | – | > 100 µM (inactive) | > 100 µM (inactive) |
| NC(=O)CCC(Nc1c2ccccc2[n+]([O-])c2ccccc12)C(=O)O (configuration not stated) | 29.9 µM (inactive) | 36.6 µM (inactive) | 11.1 µM (inactive) | 71.8 µM (inactive) | 55.1 µM (inactive) | > 100 µM (inactive) | > 100 µM (inactive) | > 100 µM (inactive) | 32 µM (inactive) | 63 µM (inactive) | > 100 µM (inactive) | > 100 µM (inactive) | 49.1 µM (inactive) | 18.6 µM (inactive) | – | 84.1 µM (inactive) | – |
| COCNC(=NC#N)NCOC | > 100 µM (inactive) | > 100 µM (inactive) | > 68.9 µM (inactive) | > 100 µM (inactive) | > 100 µM (inactive) | > 100 µM (inactive) | > 100 µM (inactive) | > 100 µM (inactive) | > 100 µM (inactive) | > 100 µM (inactive) | > 100 µM (inactive) | > 100 µM (inactive) | > 53.5 µM (inactive) | > 49.3 µM (inactive) | > 100 µM (inactive) | > 100 µM (inactive) | > 100 µM (inactive) |
| O=C1c2ccccc2CC1C1(O)C(=O)Nc2ccccc21 (configuration not stated) | > 100 µM (inactive) | > 100 µM (inactive) | > 100 µM (inactive) | > 100 µM (inactive) | > 100 µM (inactive) | > 100 µM (inactive) | – | > 100 µM (inactive) | > 100 µM (inactive) | > 100 µM (inactive) | > 100 µM (inactive) | > 100 µM (inactive) | > 100 µM (inactive) | > 100 µM (inactive) | > 100 µM (inactive) | > 100 µM (inactive) | > 100 µM (inactive) |
| CC(C(=O)c1ccc(Cl)cc1)C1OC(=O)C(Cl)=C1Cl (configuration not stated) | 18.9 µM (inactive) | 41.3 µM (inactive) | 19 µM (inactive) | 24.6 µM (inactive) | 24.8 µM (inactive) | 39.4 µM (inactive) | 26.6 µM (inactive) | 37.2 µM (inactive) | 37.9 µM (inactive) | 32.5 µM (inactive) | > 100 µM (inactive) | 34.1 µM (inactive) | 23.9 µM (inactive) | 26.9 µM (inactive) | > 10 µM (inactive) | 25.7 µM (inactive) | – |
| CC(C)(C)[C@H]1CC[C@@](O)(c2ccccc2)CC1.CC(C)(C)[C@H]1CC[C@](O)(c2ccccc2)CC1 | 23.4 µM (inactive) | 20 µM (inactive) | 16.3 µM (inactive) | 18.8 µM (inactive) | 15.6 µM (inactive) | 23.1 µM (inactive) | 26.5 µM (inactive) | 19.4 µM (inactive) | 14.8 µM (inactive) | 18.7 µM (inactive) | 72.8 µM (inactive) | 18.2 µM (inactive) | 17.7 µM (inactive) | 21.1 µM (inactive) | – | – | – |
